Measured values as given in patent US20250382373A1, “ANTI-EGFR/MET ANTIBODIES AND USES THEREOF” (Biocytogen Pharmaceuticals (Beijing) Co., Ltd., priority 2022, published 2025).

Legend:
[1] = test system: patient-derived lung tumor fragments (PDX002); test: Human lung PDX002 model; assay type: in vivo, B-NDG mice; conditions: once a week x2; for Tumor volume Day 0: day of grouping; for Survival: surviving/total mice
Protocol: The control group mice were injected with PBS (G1).

[2] = test system: NCI-H1975 cells; test: NCI-H1975 xenograft model in B-NDG mice; assay type: in vivo; conditions: Table 21 study
Protocol: The lengths of the long axis and the short axis of the tumor were measured and the volume of the tumor was calculated as 0.5×(long axis)×(short axis)^2. The tumor growth inhibition (TGI) was calculated using the following formula: TGI (%)=[1−(Ti−T0)/(Vi−V0)]×100. Ti is the average tumor volume in the treatment group on day i. T0 is the average tumor volume in the treatment group on day zero. Vi is the average tumor volume in the control group on day i. V0 is the average tumor volume in the control group on day zero. T-test was performed for statistical analysis. […] P<0.05 is a threshold to indicate significant difference.

[3] = test system: NCI-H292 cells; test: Internalization of antibodies targeting EGFR and/or MET in NCI-H292 cells; assay type: cell-based, human; conditions: NCI-H292, 1 hour
Protocol: (§1) Anti-EGFR antibodies, anti-MET antibodies, or anti-EGFR/MET bispecific antibodies, together with the pHAb-Goat anti-human IgG secondary antibody were added to NCI-H1975 cells (ATCC, Reference No.: CRL-5908), HCC827 cells (ATCC, Reference No.: CRL-2868) and NCI-H292 (ATCC, Reference No.: CRL-1848) cells, respectively, and incubated for 1 hour. The cells were centrifuged and washed with FACS buffer. MFI was measured using a flow cytometer. Endocytosis rates of antibodies were calculated. For isotype control (ISO), an antibody targeting an irrelevant target protein was used.

[4] = test system: patient-derived lung tumor fragments (PDX001); test: Human lung PDX001 model; assay type: in vivo, B-NDG mice; conditions: for TGI (%): Day 23; for Tumor volume Day 0: day of grouping; for Survival: surviving/total mice
[5] = test system: patient-derived pancreatic tumor fragments (PDX004); test: Human pancreatic PDX004 model; assay type: in vivo, B-NDG mice; conditions: Day 35
From the text: The tested antibody and the frequency of administration was similar to Table 28.

[6] = test system: patient-derived pancreatic tumor fragments (PDX003); test: Human pancreatic PDX003 model; conditions: for TGI (%): Day 21; for Tumor volume Day 0: day of grouping; for Survival: surviving/total mice
Protocol: The antibodies were tested for their effect in two human pancreatic PDX (PDX003 and PDX004) models.
In PDX003 model, B-NDG mice were engrafted in the right flank with patient-derived pancreatic tumor fragments (2 mm×2 mm×2 mm). When the tumors in the mice reached a volume of about 300-400 mm^3, the mice were randomly placed into different groups based on the volume of the tumor.

[7] = test system: NCI-H292 cells; test: NCI-H292 xenograft model in B-NDG mice; conditions: for Tumor volume Day 14: 14 days after grouping; for Tumor volume Day 14 / Tumor volume Day 0 / Tumor volume Day 24: 1×10^7 NCI-H292 cells, about 300 mm^3 at grouping; for TGI (%): Day 24; for TGI (%) / Survival: 1×10^7 NCI-H292 cells experiment; for Tumor volume Day 0: day of grouping; for Tumor volume Day 24: end of experiment; for Survival: surviving/total mice
Protocol: The antibodies were tested for their effect on tumor growth in vivo in a model of lung carcinoma. About 1×10^7 NCI-H292 cells were injected subcutaneously in B-NDG mice. When the tumor in mice reached a volume of about 300 mm^3, the mice were randomly placed into different groups based on the volume of the tumor. The mice were then injected with PBS or antibodies by intravenous (i.v.) administration. The frequency of administration was once a week (2 administrations in total).

[8] = test system: human lung cancer cell line NCI-H1975; test: In vitro killing activity, IncuCyte; assay type: cell-based
Protocol: Different concentrations of purified antibodies (10 μg/mL, 3.33 μg/mL, 1.11 μg/mL, 0.37 μg/mL, 0.123 μg/mL, 0.041 μg/mL, 0.013 μg/mL, and 0.004 μg/mL) and corresponding ADCs were used to treat human lung cancer cell line NCI-H1975 (5×10^3) cultured in a cell culture plate, and the killing activity was detected after 72 hours of incubation in IncuCyte (Sartorius AG, IncuCyte® S3).

[9] = test system: HCC827 cells; test: Internalization of antibodies targeting EGFR and/or MET in HCC827 cells; assay type: cell-based, human; conditions: HCC827, 1 hour
Protocol: as §1

[10] = test system: SNU-5 cells; test: SNU-5 xenograft model (gastric carcinoma) in B-NDG mice; assay type: in vivo; conditions: for Tumor volume Day 10: 10 days after grouping; for TGI (%): Day 24; for Tumor volume Day 0: day of grouping; for Tumor volume Day 24: end of experiment; for Survival: surviving/total mice

Amivantamab analog: analog of Amivantamab, fully human bispecific antibody targeting EGFR and MET; SEQ ID NOs: 77-80
Tumor volume Day 10 ([1]; 1 mg/kg): 805 ± 99 mm^3
Tumor volume Day 21 ([1]; 1 mg/kg): 2279 ± 253 mm^3
Tumor volume Day 0 ([1]; 1 mg/kg): 267 ± 12 mm^3
Survival ([1]; 1 mg/kg): 0/6
Tumor volume Day 10 ([1]; 3 mg/kg): 686 ± 55 mm^3
Tumor volume Day 21 ([1]; 3 mg/kg): 1791 ± 214 mm^3
Tumor volume Day 35 ([1]; 3 mg/kg): 3509 ± 239 mm^3
TGI (%) ([1]; 3 mg/kg, Day 35): −7.1%
Tumor volume Day 0 ([1]; 3 mg/kg): 267 ± 13 mm^3
Survival ([1]; 3 mg/kg): 3/6
Survival ([2]; 10 mg/kg i.v. QW x2): 5/5
Tumor volume Day 11 ([2]; 10 mg/kg i.v. QW x2): 143 ± 20 mm^3
Tumor volume Day 21 ([2]; 10 mg/kg i.v. QW x2): 294 ± 40 mm^3
TGI (%) ([2]; 10 mg/kg i.v. QW x2, Day 21): 98.4%
Tumor volume Day 0 ([2]; 10 mg/kg i.v. QW x2, day of grouping): 260 ± 19 mm^3
MFI [3]: 13815
Positive Population [3]: 67.00%
Tumor volume Day 12 ([4]; 1 mg/kg i.v. QW x2): 1144 ± 86 mm^3
Tumor volume Day 23 ([4]; 1 mg/kg i.v. QW x2): 3077 ± 235 mm^3
TGI (%) ([4]; 1 mg/kg i.v. QW x2): −24.7%
Tumor volume Day 0 ([4]; 1 mg/kg i.v. QW x2): 223 ± 18 mm^3
Survival ([4]; 1 mg/kg i.v. QW x2): 4/6
Tumor volume Day 12 ([4]; 3 mg/kg i.v. QW x2): 1448 ± 195 mm^3
Tumor volume Day 23 ([4]; 3 mg/kg i.v. QW x2): 2465 ± 145 mm^3
TGI (%) ([4]; 3 mg/kg i.v. QW x2): 2.0%
Tumor volume Day 0 ([4]; 3 mg/kg i.v. QW x2): 223 ± 18 mm^3
Survival ([4]; 3 mg/kg i.v. QW x2): 3/6
Tumor volume Day 12 ([4]; 10 mg/kg i.v. QW x2): 1132 ± 77 mm^3
Tumor volume Day 23 ([4]; 10 mg/kg i.v. QW x2): 2666 ± 212 mm^3
TGI (%) ([4]; 10 mg/kg i.v. QW x2): −6.8%
Tumor volume Day 0 ([4]; 10 mg/kg i.v. QW x2): 223 ± 22 mm^3
Survival ([4]; 10 mg/kg i.v. QW x2): 6/6
TGI (%) ([5]; 1 mg/kg): −13.3%
TGI (%) ([5]; 3 mg/kg): −0.6%
TGI (%) ([5]; 10 mg/kg): 4.1%
Tumor volume Day 11 ([6]; 1 mg/kg i.v. QW x2): 811 ± 65 mm^3
Tumor volume Day 21 ([6]; 1 mg/kg i.v. QW x2): 1410 ± 130 mm^3
TGI (%) ([6]; 1 mg/kg i.v. QW x2): −2.0%
Tumor volume Day 0 ([6]; 1 mg/kg i.v. QW x2): 340 ± 18 mm^3
Survival ([6]; 1 mg/kg i.v. QW x2): 6/6
Tumor volume Day 11 ([6]; 3 mg/kg i.v. QW x2): 705 ± 62 mm^3
Tumor volume Day 21 ([6]; 3 mg/kg i.v. QW x2): 1216 ± 96 mm^3
TGI (%) ([6]; 3 mg/kg i.v. QW x2): 16.5%
Tumor volume Day 0 ([6]; 3 mg/kg i.v. QW x2): 340 ± 18 mm^3
Survival ([6]; 3 mg/kg i.v. QW x2): 6/6
Tumor volume Day 11 ([6]; 10 mg/kg i.v. QW x2): 666 ± 60 mm^3
Tumor volume Day 21 ([6]; 10 mg/kg i.v. QW x2): 1146 ± 123 mm^3
TGI (%) ([6]; 10 mg/kg i.v. QW x2): 23.2%
Tumor volume Day 0 ([6]; 10 mg/kg i.v. QW x2): 340 ± 16 mm^3
Survival ([6]; 10 mg/kg i.v. QW x2): 6/6
Tumor volume Day 14 ([7]; 1 mg/kg i.v. QW x2): 1338 ± 243 mm^3
TGI (%) ([7]; 1 mg/kg i.v. QW x2): 0.4%
Tumor volume Day 0 ([7]; 1 mg/kg i.v. QW x2): 311 ± 14 mm^3
Tumor volume Day 24 ([7]; 1 mg/kg i.v. QW x2): 2485 ± 536 mm^3
Survival ([7]; 1 mg/kg i.v. QW x2): 4/5
Tumor volume Day 14 ([7]; 3 mg/kg i.v. QW x2): 1380 ± 320 mm^3
TGI (%) ([7]; 3 mg/kg i.v. QW x2): 26.2%
Tumor volume Day 0 ([7]; 3 mg/kg i.v. QW x2): 314 ± 11 mm^3
Tumor volume Day 24 ([7]; 3 mg/kg i.v. QW x2): 1925 ± 389 mm^3
Survival ([7]; 3 mg/kg i.v. QW x2): 4/5
Tumor volume Day 14 ([7]; 10 mg/kg i.v. QW x2): 915 ± 150 mm^3
TGI (%) ([7]; 10 mg/kg i.v. QW x2): 44.5%
Tumor volume Day 0 ([7]; 10 mg/kg i.v. QW x2): 327 ± 11 mm^3
Tumor volume Day 24 ([7]; 10 mg/kg i.v. QW x2): 1538 ± 267 mm^3
Survival ([7]; 10 mg/kg i.v. QW x2): 4/5
IC50 ([8]; NCI-H1975, 72 hours): Not detected
ability to kill NCI-H1975 ([8]; highest concentration of 10 μg/m): neither E-6C4-M-2F11 nor Amivantamab analog has the ability to kill
MFI [9]: 30401
Positive Population [9]: 88.90%
Tumor volume Day 10 ([10]; 3 mg/kg i.v. QW x2): 294 ± 10 mm^3
TGI (%) ([10]; 3 mg/kg i.v. QW x2): 8.4%
Tumor volume Day 0 ([10]; 3 mg/kg i.v. QW x2): 200 ± 5 mm^3
Tumor volume Day 24 ([10]; 3 mg/kg i.v. QW x2): 1111 ± 64 mm^3
Survival ([10]; 3 mg/kg i.v. QW x2): 5/5
Tumor volume Day 10 ([10]; 10 mg/kg i.v. QW x2): 72 ± 9 mm^3
TGI (%) ([10]; 10 mg/kg i.v. QW x2): 106.4%
Tumor volume Day 0 ([10]; 10 mg/kg i.v. QW x2): 200 ± 9 mm^3
Tumor volume Day 24 ([10]; 10 mg/kg i.v. QW x2): 136 ± 35 mm^3
Survival ([10]; 10 mg/kg i.v. QW x2): 5/5
